The test system of one test is Del19/T790M/C797S EGFR. Kind of test: EGFR degradation HTRF assay in H1975-clone #28 (DTC) cells. Type of test: cell-based. As to conditions: H1975 # 28 DTC (Del19/T790M/C797S), 16h treatment; for DC50: HTRF; for Dmax (%): maximum percentage of degradation. The method, boiled down: (§1)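 Cells carrying only lentiviral mutant EGFR, since endogenous alleles were removed by CRISPR, received compounds on day 2 for 16 h. Final concentrations ran from 10 uM down in 5-fold steps over 8 doses. After lysis, EGFR levels were quantified by HTRF and DC50 derived by curve fitting.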
(In general: In TR-FRET formats the signal depends on donor and acceptor labels being close together.)

Another test has as its target T1, L858R/T790M/C797S EGFR (Homo sapiens, UniProt P00533, C797S/L858R/T790M).
T1 construct: expressed in transfected cells; host or cells: H1975 clone #25 (lentiviral over-expression, endogenous EGFR knocked out by sgRNA)
Kind of test: EGFR degradation HTRF assay in H1975-clone #25 (LTC) cells. The class given is cell-based. As to conditions: 16h treatment; for DC50: H1975 # 25-LTC (L858R/T790M/C797S), HTRF; for Dmax: NCI-H1975, H1975 # 25-LTC (L858R/T790M/C797S), maximum percentage of degradation. The method, boiled down: as §1

One may read the DC50 as the concentration giving 50% degradation. Read a high DC50 as a less potent degrader. Broadly, the Dmax is the greatest extent of degradation seen. High values mean a fuller loss of target, low ones a partial loss of target.

T1 sequence (P00533 25-1210 T790M/C797S/L858R): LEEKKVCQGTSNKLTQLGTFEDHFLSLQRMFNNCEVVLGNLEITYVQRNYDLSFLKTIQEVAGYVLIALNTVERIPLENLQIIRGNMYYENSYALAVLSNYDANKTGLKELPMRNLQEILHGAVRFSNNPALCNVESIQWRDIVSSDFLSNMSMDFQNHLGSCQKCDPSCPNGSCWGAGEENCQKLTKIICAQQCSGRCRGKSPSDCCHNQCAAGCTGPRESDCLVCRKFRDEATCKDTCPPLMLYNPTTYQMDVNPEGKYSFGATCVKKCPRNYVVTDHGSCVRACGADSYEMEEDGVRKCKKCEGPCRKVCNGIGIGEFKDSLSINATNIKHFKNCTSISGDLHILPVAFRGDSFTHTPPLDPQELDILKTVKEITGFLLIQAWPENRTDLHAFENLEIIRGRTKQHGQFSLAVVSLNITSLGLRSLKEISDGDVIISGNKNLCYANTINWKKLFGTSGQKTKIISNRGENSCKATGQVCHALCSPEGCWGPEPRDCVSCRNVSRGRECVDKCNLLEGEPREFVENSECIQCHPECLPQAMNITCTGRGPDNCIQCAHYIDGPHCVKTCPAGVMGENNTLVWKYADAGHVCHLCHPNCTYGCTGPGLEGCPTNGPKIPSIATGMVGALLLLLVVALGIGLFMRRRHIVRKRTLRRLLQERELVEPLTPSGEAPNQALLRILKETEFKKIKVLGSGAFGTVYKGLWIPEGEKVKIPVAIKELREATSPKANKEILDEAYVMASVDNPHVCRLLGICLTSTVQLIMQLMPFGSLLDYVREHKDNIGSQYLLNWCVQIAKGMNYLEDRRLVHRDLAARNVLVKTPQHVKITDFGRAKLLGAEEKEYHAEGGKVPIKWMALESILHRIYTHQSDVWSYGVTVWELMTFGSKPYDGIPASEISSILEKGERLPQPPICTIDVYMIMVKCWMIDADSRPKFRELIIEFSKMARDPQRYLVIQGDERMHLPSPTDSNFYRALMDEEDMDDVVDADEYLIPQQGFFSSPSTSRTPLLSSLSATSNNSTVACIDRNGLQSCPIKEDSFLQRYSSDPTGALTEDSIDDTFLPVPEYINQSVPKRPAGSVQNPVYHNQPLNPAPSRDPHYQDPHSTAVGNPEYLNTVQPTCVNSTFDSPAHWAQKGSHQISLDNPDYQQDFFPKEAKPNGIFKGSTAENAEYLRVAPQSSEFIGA

Take `Cc1cc2cc(n1)-c1cnn(C)c1OCCC[C@@H](C)CN1/C(=N/C2=O)Nc2ccc(C(=O)N[C@H]3CCN(CCc4cc(F)c([C@H]5CCC(=O)NC5=O)c(F)c4)[C@@H](C)C3)cc21` [Example 270, (R,E)-N—((2S,4S)-1-(4-((R)-2,6-dioxopiperidin-3-yl)-3,5-difluorophenethyl)-2-methylpiperidin-4-yl)-1^1,2^6,7-trimethyl-3-oxo-5^2,5^3-dihydro-1^1H,5^1H-11-oxa-4-aza-5(2,1)-benzo[d]imidazola-2(2,4)-pyridina-1(4,5)-pyrazolacycloundecaphane-5^6-carboxamide]: in the test with Del19/T790M/C797S EGFR, the DC50 was found to be 0.614 nM and the “Dmax (%)” value worked out at 81.16%. In addition, at L858R/T790M/C797S EGFR, the DC50 turned out to be 0.429 nM and the Dmax stood at 92.5%.
For `Cc1cc2cc(n1)-c1cnn(C)c1OCCC[C@@H](C)CN1/C(=N/C2=O)Nc2ccc(C(=O)N(C)[C@@H]3CCN(CCc4cc(F)c([C@H]5CCC(=O)NC5=O)c(F)c4)[C@H](C)C3)cc21` [Example 268, (R,E)-N—((2R,4R)-1-(4-((R)-2,6-dioxopiperidin-3-yl)-3,5-difluorophenethyl)-2-methylpiperidin-4-yl) -N,1^1,2^6,7-tetramethyl-3-oxo-5^2,5^3-dihydro-1^1H,5^1H-li-oxa-4-aza-5(2,1)-benzo[d]imidazola-2(2,4)-pyridina-1(4,5)-pyrazolacycloundecaphane-5^6-carboxamide], in the test on Del19/T790M/C797S EGFR, the DC50 stood at 0.439 nM and the “Dmax (%)” value stood at 81.98%. In addition, on L858R/T790M/C797S EGFR, the DC50 came out at 0.53 nM and the Dmax stood at 89.8%.
For `COC[C@@H]1CN(c2ccc3c(c2)N2C[C@H](C)CCCOc4c(cnn4C)-c4cc(cc(C)n4)C(=O)/N=C/2N3)CCN1C1CCN(c2cc(F)c([C@H]3CCC(=O)NC3=O)c(F)c2)CC1` [Example 397, (R)-3-(2,6-difluoro-4-(4-((S)-2-(methoxymethyl)-4-((R,E)-1^1,2^6,7-trimethyl-3-oxo-5^2,5^3-dihydro-1^1H,5^1H-1i-oxa-4-aza-5(2,1)-benzo[d]imidazola-2(2,4)-pyridina-1(4,5)-pyrazolacycloundecaphane-5-yl)piperazin-1-yl)piperidin-1-yl)phenyl)piperidine-2,6-dione] the same measures were 2.13 nM, 76.68%, 2.01 nM and 88.3%.
Take `CO[C@@H]1CN(CCc2cc(F)c([C@H]3CCC(=O)NC3=O)c(F)c2)CC[C@@H]1N(C)C(=O)c1ccc2c(c1)N1C[C@H](C)CCCOc3c(cnn3C)-c3cc(cc(C)n3)C(=O)/N=C/1N2` [Example 252, (R,E)-N—((3R,4S)-1-(4-((R)-2,6-dioxopiperidin-3-yl)-3,5-difluorophenethyl)-3-methoxypiperidin-4-yl)-N,1^1,2^6,7-tetramethyl-3-oxo-5^2,5^3-dihydro-1^1H,5^1H-11-oxa-4-aza-5(2,1)-benzo[d]imidazola-2(2,4) -pyridina-1(4,5)-pyrazolacycloundecaphane-5^4-carboxamide]: in the test on Del19/T790M/C797S EGFR, half-maximal degradation (DC50) was put at 0.606 nM and the “Dmax (%)” value came to 77.32%. In addition, on L858R/T790M/C797S EGFR, the DC50 worked out at 0.584 nM and the Dmax turned out to be 92.4%.
`Cc1cc2cc(n1)-c1cnn(C)c1OCCC[C@@H](C)CN1/C(=N/C2=O)Nc2ccc(C(=O)N(C)C3CCC(N(C)CCc4cc(F)c([C@H]5CCC(=O)NC5=O)c(F)c4)CC3)cc21` (stereo partly drawn) [Example 278, (R,E)-N-(4-((4-((R)-2,6-dioxopiperidin-3-yl)-3,5-difluorophenethyl)(methyl)amino)cyclohexyl)-N,1^1,2^6,7-tetramethyl-3-oxo-5^2,5^3-dihydro-1^1H,5^1H-11-oxa-4-aza-5(2,1)-benzo[d]imidazola-2(2,4)-pyridina-1(4,5)-pyrazolacycloundecaphane-5^6-carboxamide]: in the test on Del19/T790M/C797S EGFR, it took 0.567 nM to reach half-maximal degradation (DC50) and the “Dmax (%)” value is given as 52.21%. On L858R/T790M/C797S EGFR, half-maximal degradation (DC50) was put at 0.804 nM and the Dmax was 74.2%.
Turning to `Cc1cc2cc(n1)-c1cnn(C)c1OCCC[C@@H](C)CN1/C(=N/C2=O)Nc2ccc(N3CCN([C@H]4CCN(c5cc(F)c([C@H]6CCC(=O)NC6=O)c(F)c5)C[C@@H]4F)CC3)cc21` (single isomer, unassigned) [Example 424], in the test with Del19/T790M/C797S EGFR, the DC50 came to 0.794 nM and the “Dmax (%)” value is on record as 82.75%. Moreover, at L858R/T790M/C797S EGFR, half-maximal degradation (DC50) was put at 2.51 nM and the Dmax is 89.8%.
The matching figures for `Cc1cc2cc(n1)-c1cnn(C)c1OCCC[C@@H](C)CN1/C(=N/C2=O)Nc2ccc(N3CCN(C4CCN(c5cc(F)c([C@H]6CCC(=O)NC6=O)c(F)c5)CC4)CC34CC4)cc21` [Example 418, (R)-3-(2,6-difluoro-4-(4-(4-((R,E)-1^1,2^6,7-trimethyl-3-oxo-5^2,5^3-dihydro-1^1H,5^1H-11-oxa-4-aza-5(2,1)-benzo[d]imidazola-2(2,4)-pyridina-1(4,5)-pyrazolacycloundecaphane-5^6-yl)-4,7-diazaspiro[2.5]octan-7-yl)piperidin-1-yl)phenyl)piperidine-2,6-dione]: 3.2 nM, 91.56%, 0.517 nM and 60.7%.
For the compound `Cc1cc2cc(n1)-c1cnn(C)c1OCCC[C@@H](C)CN1/C(=N/C2=O)Nc2ccc(C(=O)N(C)C3CCN(CCc4cccc5c4C4(CC4)C(=O)N5C4CCC(=O)NC4=O)CC3)cc21` (stereo partly drawn) [Example 316, (7R,E)-N-(1-(2-(1′-(2,6-dioxopiperidin-3-yl)-2′-oxospiro[cyclopropane-1,3′-indolin]-4′-yl)ethyl)piperidin-4-yl)-N,1^1,2^6,7-tetramethyl-3-oxo-5^2,5′-dihydro-1^1H,5^1H-11-oxa-4-aza-5(2,1)-benzo[d]imidazola-2(2,4)-pyridina-1(4,5)-pyrazolacycloundecaphane-5^6-carboxamide], in the test with Del19/T790M/C797S EGFR, it took 0.925 nM to reach half-maximal degradation (DC50) and the “Dmax (%)” value turned out to be 47.67%. At L858R/T790M/C797S EGFR, this compound returned a 50% degradation concentration (DC50) of 0.655 nM and a Dmax of 77.9%.
The matching figures for `Cc1cc2cc(n1)-c1cnn(C)c1OCCCCCN1/C(=N/C2=O)Nc2ccc(CN3CCN(CCc4cc(F)c([C@H]5CCC(=O)NC5=O)c(F)c4)CC3)cc21` [Example 144, (R,E)-3-(4-(2-(4-((1^1,2^6-dimethyl-3-oxo-5^2,5^3-dihydro-1^1H,5^1H-11-oxa-4-aza-5(2,1)-benzo[d]imidazola-2(2,4)-pyridina-1(4,5)-pyrazolacycloundecaphane-5^6-yl)methyl)piperazin-1-yl)ethyl)-2,6-difluorophenyl)piperidine-2,6-dione]: 0.508 nM, 55.85%, 0.761 nM and 80.8%.
Consider `Cc1cc2cc(n1)-c1cnn(C)c1OCCC[C@@H](C)CN1/C(=N/C2=O)Nc2ccc(C(=O)N(C)C3CCN(CCC4CN(c5cc(F)c([C@H]6CCC(=O)NC6=O)c(F)c5)C4)CC3)cc21` [Example 285, (R,E)-N-(1-(2-(1-(4-((R)-2,6-dioxopiperidin-3-yl)-3,5-difluorophenyl)azetidin-3-yl)ethyl)piperidin-4-yl)-N,1^1,2^6,7-tetramethyl-3-oxo-5^2,5^3-dihydro-1^1H,5^1H-11-oxa-4-aza-5(2,1)-benzo[d]imidazola-2(2,4)-pyridina-1(4,5)-pyrazolacycloundecaphane-5^6-carboxamide], for which, in the test with Del19/T790M/C797S EGFR, half-maximal degradation (DC50) was put at 0.667 nM and the “Dmax (%)” value worked out at 77.98%. At L858R/T790M/C797S EGFR, this compound registered a DC50 of 0.651 nM and a Dmax of 89.8%.
Regarding `Cc1cc2cc(n1)-c1cnn(C)c1OCCC[C@@H](C)CN1/C(=N/C2=O)Nc2ccc(CN3CCC4(CC3)CN(C(=O)[C@@H]3CCN(c5cc(F)c([C@H]6CCC(=O)NC6=O)c(F)c5)C3)C4)cc21` [Example 20, (R)-3-(2,6-difluoro-4-((R)-3-(7-(((R,E)-1^1,2^6,7-trimethyl-3-oxo-5^2,5^3-dihydro-1^1H,5^1H-li-oxa-4-aza-5(2,1)-benzo[d]imidazola-2(2,4)-pyridina-1(4,5)-pyrazolacycloundecaphane-5^6-yl)methyl)-2,7-diazaspiro[3.5]nonane-2-carbonyl)pyrrolidin-1-yl)phenyl)piperidine-2,6-dione], in the test with Del19/T790M/C797S EGFR, the DC50 amounted to 0.7 nM and the “Dmax (%)” value was determined as 79.0%. Besides, at L858R/T790M/C797S EGFR, it took 0.9 nM to reach half-maximal degradation (DC50) and the maximal degradation (Dmax) came to 89%.
Consider `Cc1cc2cc(n1)-c1cnn(C)c1OCCC[C@@H](C)CN1/C(=N/C2=O)Nc2ccc(N3CCN(C4CCN(c5cc(F)c([C@H]6CCC(=O)NC6=O)c(F)c5)CC4)[C@H](C)C3)cc21` [Example 388, (R)-3-(2,6-difluoro-4-(4-((R)-2-methyl-4-((R,E)-1^1,2^6,7-trimethyl-3-oxo-5^2,5^3-dihydro-1^1H,5^1H-11-oxa-4-aza-5(2,1)-benzo[d]imidazola-2(2,4)-pyridina-1(4,5)-pyrazolacycloundecaphane-5^6-yl)piperazin-1-yl)piperidin-yl)phenyl)piperidine-2,6-dione], for which, in the test on Del19/T790M/C797S EGFR, half-maximal degradation (DC50) was put at 0.776 nM and the “Dmax (%)” value is on record as 80.94%. At L858R/T790M/C797S EGFR, this compound returned a DC50 of 1.11 nM and a Dmax of 86.5%.
Regarding `Cc1cc2cc(n1)-c1cnn(C)c1OCCC[C@@H](C)CN1/C(=N/C2=O)Nc2ccc(C(=O)N[C@H]3CCN(CCc4cc(F)c([C@H]5CCC(=O)NC5=O)c(F)c4)C[C@@H]3F)cc21` [Example 342, (R,E)-N—((3S,4S)-1-(4-((R)-2,6-dioxopiperidin-3-yl)-3,5-difluorophenethyl)-3-fluoropiperidin-4-yl)-1^1,2^6,7-trimethyl-3-oxo-5^2,5^3-dihydro-1^1H,5^1H-11-oxa-4-aza-5(2,1)-benzo[d]imidazola-2(2,4)-pyridina-1(4,5)-pyrazolacycloundecaphane-5^6-carboxamide], in the test on Del19/T790M/C797S EGFR, half-maximal degradation (DC50) was put at 0.607 nM and the “Dmax (%)” value was 77.52%. At L858R/T790M/C797S EGFR, half-maximal degradation (DC50) was put at 0.62 nM and the Dmax was 90.8%.

The record behind these values is patent US20240342292A1, “Compounds for the Degradation of EGFR Kinase” (BeiGene Switzerland GmbH, priority 2021, published 2024).
